From patent US7015238B2, “Crystalline organic acid salt of amlodipine” (CJ Corp., priority 2002, dated 2006)
Structures can show the parent of a compound that is named as a salt.

Columns and labels:
Format in all cases: physicochemical
[1] = Thermal stability in a solid state, acceleration test at 60° C. (HPLC content)
Method: High Performance Liquid Chromatography (HPLC) analysis was conducted under the following conditions:
Detector: UV absorption (237 nm)
Column: Octadesyl silica gel C18 (4.6 mm×150 mm, 5 μm)
Mobile phase: Potassium dihydrogen phosphate monobasic (0.03 M): Methanol=4:6 (by volume)

[2] = Evaluation of hygroscopicity: water content by Karl Fisher method under various humidity conditions; details: 25° C.
[3] = Evaluation of photostability (exposed to sunlight at 25° C. for 4 weeks, HPLC content); details: for Colour of the surface after exposure to light: white at initial stage, exposed to sunlight at 25° C., 4 weeks; for Content (HPLC): stored at 25° C. for 4 weeks with light exposure
Method: To evaluate photostability, a change in the content (%, HPLC) of each sample was observed under the same HPLC analysis conditions as in the evaluation of thermal stability. Photostability is quite an important factor in therapeutic agents for treating hypertension because they are administered to patients over a prolonged period of dosage.

[4] = Stability in a liquid state (distilled water, 25° C., 4 weeks, protected from light); details: dissolved in distilled water, 4 weeks at 25° C.
Description: The observation was made under the same conditions as in the HPLC analysis for evaluating the thermal stability of samples in a solid state.

| Compound | Content (HPLC) ([1]; 60° C., 1 week) [%] | Content (HPLC) ([1]; 60° C., 2 weeks) [%] | Content (HPLC) ([1]; 60° C., 4 weeks) [%] | Content (HPLC) ([1]; initial stage) [%] | Water content (Karl Fisher method) ([2]; initial stage) [%] | Water content (Karl Fisher method) ([2]; relative humidity 25%, 1 week) [%] | Water content (Karl Fisher method) ([2]; relative humidity 60%, 1 week) [%] | Water content (Karl Fisher method) ([2]; relative humidity 75%, 1 week) [%] | Water content (Karl Fisher method) ([2]; relative humidity 95%, 1 week) [%] | Colour of the surface after exposure to light [3] | Change in the content (HPLC) [4] | Decomposed products [4] | Content (HPLC) [3] [%] |
| --- | --- | --- | --- | --- | --- | --- | --- | --- | --- | --- | --- | --- | --- |
| CCOC(=O)C1=C(COCCN)NC(C)=C(C(=O)OC)C1c1ccccc1Cl (stereo not drawn) [Adipic acid salt, crystalline adipic acid salt of amlodipine] | 99.8 | 99.7 | 99.7 | 99.8 | 0.10 | 0.10 | 0.10 | 0.14 | 0.16 | remained white | no significant changes in the content | no decomposed products | – |
| CCOC(=O)C1=C(COCCN)NC(C)=C(C(=O)OC)C1c1ccccc1Cl (stereo not drawn) [Besylate salt, Amlodipine Besylate, reference compound] | 99.6 | – | – | 99.6 | 0.14 | 0.10 | 0.09 | 0.15 | 0.17 | turned yellow | no significant changes in the content | no decomposed products | 82.5 |
| CCOC(=O)C1=C(COCCN)NC(C)=C(C(=O)OC)C1c1ccccc1Cl (stereo not drawn) [Tosylate salt, Amlodipine p-Toluene Sulfonate] | – | – | – | – | – | – | – | – | – | – | – | – | 72.0 |
